{
  "source": "patent US6355799B1",
  "about": "“Substituted benzene compounds, process for their preparation, and herbicidal and defoliant compositions containing them” (ISK Americas Incorporated, priority 1997, dated 2002)",
  "type_in_all_cases": "in vivo",
  "key": {"[1]": {"system": "field corn (Zea mays L., var. Dekalb 535, CORN)", "test": "Pre-emerge test, crop safety", "settings": "pre-emerge, rated 14 days after application, 0 = no damage, 100 = complete death", "how_it_was_run": "(§1)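 Herbicidal damage is scored 0 (none) to 100 (complete plant death) two weeks after a simulated field spray. Rates span 15–1000 g ai/ha, delivered in acetone at 187 l/ha. For post-emergence treatments, plants have 2–3 leaves and the spray carries 0.25% v/v non-ionic surfactant.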"}, "[2]": {"system": "upland rice (Oryza sp., var. Tebonnet, RICE)", "test": "Pre-emerge test, crop safety", "settings": "pre-emerge, rated 14 days after application, 0 = no damage, 100 = complete death", "how_it_was_run": "as §1"}, "[3]": {"system": "ivyleaf morningglory (Ipomoea hederacea, IPOHE)", "test": "Post-emerge test, greenhouse herbicide activity screening", "settings": "phytotoxicity rating 0-100 (0 no damage, 100 complete death), 14 days after application", "how_it_was_run": "(§2)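 Plants grown in 10 cm pots of sandy loam mix received acetone-dissolved compounds through a moving flat-fan nozzle. Doses ranged from 15 to 1000 g ai/ha. Pre-emerge pots were seeded one day earlier, post-emerge pots 8–21 days earlier. Fourteen days on, each pot was graded 0–100 for damage.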"}, "[4]": {"system": "large crabgrass (Digitaria sanguinalis, DIGSA)", "test": "Post-emerge test, greenhouse herbicide activity screening", "settings": "phytotoxicity rating 0-100 (0 no damage, 100 complete death), 14 days after application", "how_it_was_run": "as §2"}, "[5]": {"system": "johnsongrass (Sorghum halepense, SORHA)", "test": "Post-emerge test, greenhouse herbicide activity screening", "settings": "phytotoxicity rating 0-100 (0 no damage, 100 complete death), 14 days after application", "how_it_was_run": "as §2"}, "[6]": {"system": "sicklepod (Cassia obtusifolia, CASOB)", "test": "Post-emerge test, greenhouse herbicide activity screening", "settings": "phytotoxicity rating 0-100 (0 no damage, 100 complete death), 14 days after application", "how_it_was_run": "as §2"}, "[7]": {"system": "green foxtail (Setaria viridis, SETVI)", "test": "Post-emerge test, greenhouse herbicide activity screening", "settings": "phytotoxicity rating 0-100 (0 no damage, 100 complete death), 14 days after application", "how_it_was_run": "as §2"}, "[8]": {"system": "common ragweed (Ambrosia artemisizfolia L., AMBEL)", "test": "Post-emerge test, greenhouse herbicide activity screening", "settings": "phytotoxicity rating 0-100 (0 no damage, 100 complete death), 14 days after application", "how_it_was_run": "as §2"}, "[9]": {"system": "redroot pigweed (Amaranthus retroflexus, AMARE)", "test": "Post-emerge test, greenhouse herbicide activity screening", "settings": "phytotoxicity rating 0-100 (0 no damage, 100 complete death), 14 days after application", "how_it_was_run": "as §2"}, "[10]": {"system": "lambsquarters (Chenopodium album, CHEAL)", "test": "Post-emerge test, greenhouse herbicide activity screening", "settings": "phytotoxicity rating 0-100 (0 no damage, 100 complete death), 14 days after application", "how_it_was_run": "as §2"}, "[11]": {"system": "velvetleaf (Abutilon theophrasti, ABUTH)", "test": "Post-emerge test, greenhouse herbicide activity screening", "settings": "phytotoxicity rating 0-100 (0 no damage, 100 complete death), 14 days after application", "how_it_was_run": "as §2"}, "[12]": {"system": "barnyardgrass (Echinochloa crus-galli, ECHCG)", "test": "Post-emerge test, greenhouse herbicide activity screening", "settings": "phytotoxicity rating 0-100 (0 no damage, 100 complete death), 14 days after application", "how_it_was_run": "as §2"}, "[13]": {"system": "field corn (Zea mays L., var. Dekalb 535, CORN)", "test": "Post-emerge test, crop safety", "settings": "phytotoxicity rating 0-100 (0 no damage, 100 complete death), 14 days after application", "how_it_was_run": "as §2"}, "[14]": {"system": "upland rice (Oryza sp., var. Tebonnet, RICE)", "test": "Post-emerge test, crop safety", "settings": "phytotoxicity rating 0-100 (0 no damage, 100 complete death), 14 days after application", "how_it_was_run": "as §2"}, "[15]": {"system": "ivyleaf morningglory (Ipomoea hederacea, IPOHE)", "test": "Pre-emerge test, greenhouse herbicide activity screening", "settings": "pre-emerge, rated 14 days after application, 0 = no damage, 100 = complete death", "how_it_was_run": "(§3)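 Rating: 0–100 visual injury, 14 DAA. Application: acetone, 187 l/ha, 15–1000 g ai/ha, flat-fan track sprayer with nozzle 40–45 cm above soil or canopy. Post-emerge runs used 0.25% v/v surfactant on 2–3 leaf plants.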"}, "[16]": {"system": "large crabgrass (Digitaria sanguinalis, DIGSA)", "test": "Pre-emerge test, greenhouse herbicide activity screening", "settings": "pre-emerge, rated 14 days after application, 0 = no damage, 100 = complete death", "how_it_was_run": "as §3"}, "[17]": {"system": "johnsongrass (Sorghum halepense, SORHA)", "test": "Pre-emerge test, greenhouse herbicide activity screening", "settings": "pre-emerge, rated 14 days after application, 0 = no damage, 100 = complete death", "how_it_was_run": "as §3"}, "[18]": {"system": "sicklepod (Cassia obtusifolia, CASOB)", "test": "Pre-emerge test, greenhouse herbicide activity screening", "settings": "pre-emerge, rated 14 days after application, 0 = no damage, 100 = complete death", "how_it_was_run": "as §3"}, "[19]": {"system": "green foxtail (Setaria viridis, SETVI)", "test": "Pre-emerge test, greenhouse herbicide activity screening", "settings": "pre-emerge, rated 14 days after application, 0 = no damage, 100 = complete death", "how_it_was_run": "as §3"}, "[20]": {"system": "common ragweed (Ambrosia artemisizfolia L., AMBEL)", "test": "Pre-emerge test, greenhouse herbicide activity screening", "settings": "pre-emerge, rated 14 days after application, 0 = no damage, 100 = complete death", "how_it_was_run": "as §3"}, "[21]": {"system": "lambsquarters (Chenopodium album, CHEAL)", "test": "Pre-emerge test, greenhouse herbicide activity screening", "settings": "pre-emerge, rated 14 days after application, 0 = no damage, 100 = complete death", "how_it_was_run": "as §3"}, "[22]": {"system": "velvetleaf (Abutilon theophrasti, ABUTH)", "test": "Pre-emerge test, greenhouse herbicide activity screening", "settings": "pre-emerge, rated 14 days after application, 0 = no damage, 100 = complete death", "how_it_was_run": "as §3"}, "[23]": {"system": "barnyardgrass (Echinochloa crus-galli, ECHCG)", "test": "Pre-emerge test, greenhouse herbicide activity screening", "settings": "pre-emerge, rated 14 days after application, 0 = no damage, 100 = complete death", "how_it_was_run": "as §3"}, "[24]": {"system": "redroot pigweed (Amaranthus retroflexus, AMARE)", "test": "Pre-emerge test, greenhouse herbicide activity screening", "settings": "pre-emerge, rated 14 days after application, 0 = no damage, 100 = complete death", "how_it_was_run": "as §1"}},
  "data": [
    {"smiles": "COc1c(Cl)cc(F)c(-n2c(=O)cc(C(F)(F)F)n(C)c2=O)c1NS(=O)(=O)c1ccc(C)cc1", "note": "[2-26]", "values": [
      {"measurement": "Pre-emerge crop damage CORN (phytotoxicity rating, scale 0-100)", "setting": "[1]; 63 g ai/ha", "result": 0},
      {"measurement": "Pre-emerge crop damage CORN (phytotoxicity rating, scale 0-100)", "setting": "[1]; 250 g ai/ha", "result": 0},
      {"measurement": "Pre-emerge crop damage RICE (phytotoxicity rating, scale 0-100)", "setting": "[2]; 63 g ai/ha", "result": 0},
      {"measurement": "Pre-emerge crop damage RICE (phytotoxicity rating, scale 0-100)", "setting": "[2]; 250 g ai/ha", "result": 0},
      {"measurement": "Post-emerge Herbicidal Activity IPOHE", "setting": "[3]; 63 g ai/ha", "result": 0},
      {"measurement": "Post-emerge Herbicidal Activity IPOHE", "setting": "[3]; 250 g ai/ha", "result": 30},
      {"measurement": "Post-emerge Herbicidal Activity DIGSA", "setting": "[4]; 63 g ai/ha", "result": 0},
      {"measurement": "Post-emerge Herbicidal Activity DIGSA", "setting": "[4]; 250 g ai/ha", "result": 0},
      {"measurement": "Post-emerge Herbicidal Activity SORHA", "setting": "[5]; 63 g ai/ha", "result": 0},
      {"measurement": "Post-emerge Herbicidal Activity SORHA", "setting": "[5]; 250 g ai/ha", "result": 0},
      {"measurement": "Post-emerge Herbicidal Activity CASOB", "setting": "[6]; 63 g ai/ha", "result": 0},
      {"measurement": "Post-emerge Herbicidal Activity CASOB", "setting": "[6]; 250 g ai/ha", "result": 0},
      {"measurement": "Post-emerge Herbicidal Activity SETVI", "setting": "[7]; 63 g ai/ha", "result": 0},
      {"measurement": "Post-emerge Herbicidal Activity SETVI", "setting": "[7]; 250 g ai/ha", "result": 0},
      {"measurement": "Post-emerge Herbicidal Activity AMBEL", "setting": "[8]; 63 g ai/ha", "result": 0},
      {"measurement": "Post-emerge Herbicidal Activity AMBEL", "setting": "[8]; 250 g ai/ha", "result": 0},
      {"measurement": "Post-emerge Herbicidal Activity AMARE", "setting": "[9]; 63 g ai/ha", "result": 0},
      {"measurement": "Post-emerge Herbicidal Activity AMARE", "setting": "[9]; 250 g ai/ha", "result": 20},
      {"measurement": "Post-emerge Herbicidal Activity CHEAL", "setting": "[10]; 63 g ai/ha", "result": 0},
      {"measurement": "Post-emerge Herbicidal Activity CHEAL", "setting": "[10]; 250 g ai/ha", "result": 20},
      {"measurement": "Post-emerge Herbicidal Activity ABUTH", "setting": "[11]; 63 g ai/ha", "result": 0},
      {"measurement": "Post-emerge Herbicidal Activity ABUTH", "setting": "[11]; 250 g ai/ha", "result": 40},
      {"measurement": "Post-emerge Herbicidal Activity ECHCG", "setting": "[12]; 63 g ai/ha", "result": 0},
      {"measurement": "Post-emerge Herbicidal Activity ECHCG", "setting": "[12]; 250 g ai/ha", "result": 0},
      {"measurement": "Post-emerge Herbicidal Activity CORN (crop damage)", "setting": "[13]; 63 g ai/ha", "result": 0},
      {"measurement": "Post-emerge Herbicidal Activity CORN (crop damage)", "setting": "[13]; 250 g ai/ha", "result": 0},
      {"measurement": "Post-emerge Herbicidal Activity RICE (crop damage)", "setting": "[14]; 63 g ai/ha", "result": 0},
      {"measurement": "Post-emerge Herbicidal Activity RICE (crop damage)", "setting": "[14]; 250 g ai/ha", "result": 0},
      {"measurement": "Pre-emerge Herbicidal Activity IPOHE (phytotoxicity rating, scale 0-100)", "setting": "[15]; 63 g ai/ha", "result": 0},
      {"measurement": "Pre-emerge Herbicidal Activity IPOHE (phytotoxicity rating, scale 0-100)", "setting": "[15]; 250 g ai/ha", "result": 0},
      {"measurement": "Pre-emerge Herbicidal Activity DIGSA (phytotoxicity rating, scale 0-100)", "setting": "[16]; 63 g ai/ha", "result": 0},
      {"measurement": "Pre-emerge Herbicidal Activity DIGSA (phytotoxicity rating, scale 0-100)", "setting": "[16]; 250 g ai/ha", "result": 0},
      {"measurement": "Pre-emerge Herbicidal Activity SORHA (phytotoxicity rating, scale 0-100)", "setting": "[17]; 63 g ai/ha", "result": 0},
      {"measurement": "Pre-emerge Herbicidal Activity SORHA (phytotoxicity rating, scale 0-100)", "setting": "[17]; 250 g ai/ha", "result": 0},
      {"measurement": "Pre-emerge Herbicidal Activity CASOB (phytotoxicity rating, scale 0-100)", "setting": "[18]; 63 g ai/ha", "result": 0},
      {"measurement": "Pre-emerge Herbicidal Activity CASOB (phytotoxicity rating, scale 0-100)", "setting": "[18]; 250 g ai/ha", "result": 0},
      {"measurement": "Pre-emerge Herbicidal Activity SETVI (phytotoxicity rating, scale 0-100)", "setting": "[19]; 63 g ai/ha", "result": 0},
      {"measurement": "Pre-emerge Herbicidal Activity SETVI (phytotoxicity rating, scale 0-100)", "setting": "[19]; 250 g ai/ha", "result": 0},
      {"measurement": "Pre-emerge Herbicidal Activity AMBEL (phytotoxicity rating, scale 0-100)", "setting": "[20]; 63 g ai/ha", "result": 0},
      {"measurement": "Pre-emerge Herbicidal Activity AMBEL (phytotoxicity rating, scale 0-100)", "setting": "[20]; 250 g ai/ha", "result": 0},
      {"measurement": "Pre-emerge Herbicidal Activity CHEAL (phytotoxicity rating, scale 0-100)", "setting": "[21]; 63 g ai/ha", "result": 0},
      {"measurement": "Pre-emerge Herbicidal Activity CHEAL (phytotoxicity rating, scale 0-100)", "setting": "[21]; 250 g ai/ha", "result": 90},
      {"measurement": "Pre-emerge Herbicidal Activity ABUTH (phytotoxicity rating, scale 0-100)", "setting": "[22]; 63 g ai/ha", "result": 0},
      {"measurement": "Pre-emerge Herbicidal Activity ABUTH (phytotoxicity rating, scale 0-100)", "setting": "[22]; 250 g ai/ha", "result": 0},
      {"measurement": "Pre-emerge Herbicidal Activity ECHCG (phytotoxicity rating, scale 0-100)", "setting": "[23]; 63 g ai/ha", "result": 0},
      {"measurement": "Pre-emerge Herbicidal Activity ECHCG (phytotoxicity rating, scale 0-100)", "setting": "[23]; 250 g ai/ha", "result": 0},
      {"measurement": "Pre-emerge Herbicidal Activity AMARE (phytotoxicity rating, scale 0-100)", "setting": "[24]; 63 g ai/ha", "result": 0},
      {"measurement": "Pre-emerge Herbicidal Activity AMARE (phytotoxicity rating, scale 0-100)", "setting": "[24]; 250 g ai/ha", "result": 80}
    ]}
  ]
}
